From EPA's ToxRefDB 2

Key:
mouse [1] = settings: Subchronic oral toxicity in rodents, b6c3f1, Feed, dose end: 13 week, group: systemic
mouse [2] = settings: Carcinogenicity, b6c3f1, Oral, [Not Specified], dose end: 104 week, group: systemic
rat [3] = settings: Subchronic oral toxicity in rodents, fischer, Feed, dose end: 13 week, group: systemic
dog [4] = settings: Chronic toxicity, beagle, Oral, Capsule, dose end: 52 week, group: systemic
rat [5] = settings: Multigenerational reproductive toxicity study, other, Oral, Feed, dose end: 2 generation
rat [6] = settings: Combined chronic toxicity/carcinogenicity; fischer; Oral; Feed; dose end: 104 week; group: systemic; systemic / in life observation / clinical signs / body cold to touch + systemic / in life observation / clinical signs / emaciation + …
dog [7] = settings: Subchronic oral toxicity in nonrodent, beagle, Capsule, dose end: 13 week, group: systemic, systemic / in life observation / clinical signs / salivation + systemic / pathology microscopic / liver / proliferation
rat [8] = settings: Carcinogenicity, sprague dawley, Oral, Feed, dose end: 104 week, group: systemic
dog [9] = settings: Chronic toxicity, beagle, Oral, Feed, dose end: 52 week, group: systemic
mouse [10] = settings: Carcinogenicity; cd1; Oral; [Not Specified]; dose end: 24 month; group: systemic; systemic / in life observation / body weight / body weight gain
rat [11] = settings: Subchronic oral toxicity in rodents, sprague dawley, Feed, dose end: 95 day, group: systemic
dog [12] = settings: Subchronic oral toxicity in nonrodent, beagle, Feed, dose end: 13 week, group: systemic, systemic / clinical chemistry / alkaline phosphatase (alp/alk) / alkaline phosphatase (alp/alk) + systemic / organ weight / prostate / …
rat [13] = settings: Chronic toxicity; sprague dawley; Oral; Feed; dose end: 104 week; group: systemic; systemic / in life observation / body weight / body weight + systemic / in life observation / body weight / body weight gain + systemic / …
rabbit [14] = settings: Prenatal developmental toxicity study, new zealand white, Oral, Gavage/Intubation, dose end: 18 GD
rat [15] = settings: Subchronic dermal toxicity, sprague dawley, Topical, dose end: 91 day, group: systemic
rat [16] = settings: Prenatal developmental toxicity study, sprague dawley, Oral, Gavage/Intubation, dose end: 15 GD
rat [17] = settings: Sub-acute dermal toxicity, sprague dawley, Topical, dose end: 21 day, group: systemic
rabbit [18] = settings: Prenatal developmental toxicity study, new zealand white, Oral, Gavage/Intubation, dose end: 18 GD; remark: listed apart in the source
rat [19] = settings: Prenatal developmental toxicity study, sprague dawley, Oral, Gavage/Intubation, dose end: 15 GD; remark: listed apart in the source
[20] = systemic / pathology microscopic / liver / [other]
[21] = systemic / pathology microscopic / liver / [other] + systemic / in life observation / body weight / body weight + systemic / in life …
[22] = systemic / pathology microscopic / liver / hematopoietic cell proliferation granulocytic + systemic / pathology gross / liver / accentuated …
[23] = systemic / clinical chemistry / alkaline phosphatase (alp/alk) / alkaline phosphatase (alp/alk) + systemic / clinical chemistry / gamma …
[24] = systemic / clinical chemistry / cholesterol / cholesterol
[25] = systemic / pathology microscopic / liver / [other] + systemic / pathology microscopic / liver / hyperplasia
[26] = systemic / pathology microscopic / liver / [other] + systemic / pathology microscopic / liver / hyperplasia + systemic / in life observation…
[27] = group: offspring, systemic / in life observation / body weight / offspring (pup) weight + systemic / in life observation / body weight / offspring (pup) …
[28] = group: parental, systemic / pathology microscopic / liver / hyperplasia
[29] = group: parental, systemic / pathology microscopic / liver / hyperplasia + systemic / pathology microscopic / liver / inflammation
[30] = systemic / in life observation / body weight / body weight + systemic / in life observation / body weight / body weight gain
[31] = systemic / in life observation / body weight / body weight + systemic / in life observation / body weight / body weight gain + systemic / in…
[32] = systemic / organ weight / prostate / absolute + systemic / organ weight / prostate / relative to body weight + systemic / clinical chemistry…
[33] = systemic / pathology microscopic / liver / vacuolization
[34] = systemic / pathology microscopic / liver / vacuolization + systemic / hematology / erythrocyte (rbc) count differential / erythrocyte (rbc…
[35] = group: developmental, developmental / developmental malformation / bone / misaligned + systemic / in life observation / body weight / fetal weight + developmental…
[36] = group: maternal, reproductive / reproductive performance / aborted / aborted + reproductive / reproductive performance / postimplantation loss / …
[37] = systemic / pathology microscopic / skin / acanthosis + systemic / hematology / blood clotting / blood clotting - prothrombin time + systemic…
[38] = group: developmental, systemic / in life observation / body weight / fetal weight
[39] = group: maternal, systemic / in life observation / body weight / body weight + systemic / in life observation / body weight / body weight gain + systemic / in…
[40] = systemic / in life observation / body weight / body weight gain + systemic / in life observation / clinical signs / desquamation + systemic…
[41] = systemic / pathology gross / skin / scabbing
[42] = group: maternal, reproductive / reproductive performance / resorptions / resorptions
[43] = group: maternal, systemic / in life observation / body weight / body weight gain

COc1cc(OC)nc(Oc2cccc(Oc3nc(OC)cc(OC)n3)c2C(=O)[O-])n1.[Na+] [Bispyribac-sodium]
LEL (mouse [1]; [20]): 699 mg/kg/day
LOAEL (mouse [1]; [20]): 699 mg/kg/day
NEL (mouse [1]; [21]): 68.6 mg/kg/day
NOAEL (mouse [1]; [21]): 68.6 mg/kg/day
LOAEL (mouse [2]; systemic / pathology microscopic / liver / hematopoietic cell proliferation granulocytic + systemic / in life observation / body weight / …): 353 mg/kg/day
LEL (mouse [2]; [22]): 1.4 mg/kg/day
NEL (mouse [2]; [22]): < 1.4 mg/kg/day
NOAEL (mouse [2]; systemic / pathology microscopic / liver / hematopoietic cell proliferation granulocytic + systemic / pathology microscopic / liver / giant …): 14.1 mg/kg/day
LOAEL (rat [3]; [23]): 724 mg/kg/day
NOAEL (rat [3]; [23]): 71.9 mg/kg/day
LEL (rat [3]; [24]): 8.1 mg/kg/day
NEL (rat [3]; [24]): < 8.1 mg/kg/day
LEL (dog [4]; [25]): 100 mg/kg/day
LOAEL (dog [4]; [25]): 100 mg/kg/day
NEL (dog [4]; [26]): 10 mg/kg/day
NOAEL (dog [4]; [26]): 10 mg/kg/day
LEL (rat [5]; [27]): 759 mg/kg/day
LOAEL (rat [5]; [27]): 759 mg/kg/day
NEL (rat [5]; [27]): 75.7 mg/kg/day
NOAEL (rat [5]; [27]): 75.7 mg/kg/day
LEL (rat [5]; [28]): 75.7 mg/kg/day
LOAEL (rat [5]; [28]): 75.7 mg/kg/day
NEL (rat [5]; [29]): 1.5 mg/kg/day
NOAEL (rat [5]; [29]): 1.5 mg/kg/day
LEL (rat [6]): 194 mg/kg/day
LOAEL (rat [6]): 194 mg/kg/day
NEL (rat [6]): 10.9 mg/kg/day
NOAEL (rat [6]): 10.9 mg/kg/day
LEL (dog [7]): 600 mg/kg/day
LOAEL (dog [7]): 600 mg/kg/day
NEL (dog [7]): 100 mg/kg/day
NOAEL (dog [7]): 100 mg/kg/day

COc1ccc(C(=CC(=O)N2CCOCC2)c2ccc(Cl)cc2)cc1OC [Dimethomorph]
LEL (rat [8]; [30]): 46.3 mg/kg/day
LOAEL (rat [8]; [30]): 46.3 mg/kg/day
NEL (rat [8]; [31]): 11.3 mg/kg/day
NOAEL (rat [8]; [31]): 11.3 mg/kg/day
LOAEL (dog [9]; systemic / organ weight / prostate / absolute + systemic / organ weight / prostate / relative to body weight): 44.6 mg/kg/day
LEL (dog [9]; [32]): 44.6 mg/kg/day
NEL (dog [9]; [32]): 14.7 mg/kg/day
NOAEL (dog [9]; [32]): 14.7 mg/kg/day
LEL (mouse [10]): 977 mg/kg/day
LOAEL (mouse [10]): 977 mg/kg/day
NEL (mouse [10]): 96.8 mg/kg/day
NOAEL (mouse [10]): 96.8 mg/kg/day
LEL (rat [11]; [33]): 2.9 mg/kg/day
NEL (rat [11]; [33]): < 2.9 mg/kg/day
LOAEL (rat [11]; [34]): > 73 mg/kg/day
NOAEL (rat [11]; [34]): ≥ 73 mg/kg/day
LEL (dog [12]): 43 mg/kg/day
LOAEL (dog [12]): 43 mg/kg/day
NEL (dog [12]): 15 mg/kg/day
NOAEL (dog [12]): 15 mg/kg/day
LEL (rat [13]): 57.7 mg/kg/day
LOAEL (rat [13]): 57.7 mg/kg/day
NEL (rat [13]): 11.9 mg/kg/day
NOAEL (rat [13]): 11.9 mg/kg/day

CN(C)C(=S)[S-].[K+] [Potassium dimethyldithiocarbamate]
LOAEL (rabbit [14]; group: developmental, developmental / developmental malformation / bone / misaligned + systemic / in life observation / body weight / fetal weight): 38 mg/kg/day
LEL (rabbit [14]; [35]): 38 mg/kg/day
NEL (rabbit [14]; [35]): 12.8 mg/kg/day
NOAEL (rabbit [14]; [35]): 12.8 mg/kg/day
LEL (rabbit [14]; [36]): 38 mg/kg/day
LOAEL (rabbit [14]; [36]): 38 mg/kg/day
NEL (rabbit [14]; [36]): 12.8 mg/kg/day
NOAEL (rabbit [14]; [36]): 12.8 mg/kg/day
LOAEL (rat [15]; systemic / pathology gross / skin / scabbing + systemic / pathology microscopic / skin / acanthosis): 350 mg/kg/day
NOAEL (rat [15]; systemic / pathology gross / skin / scabbing + systemic / pathology microscopic / skin / acanthosis + systemic / hematology / blood clotting…): 75 mg/kg/day
LEL (rat [15]; [37]): 75 mg/kg/day
NEL (rat [15]; [37]): < 75 mg/kg/day
LEL (rat [16]; [38]): 400 mg/kg/day
LOAEL (rat [16]; [38]): > 400 mg/kg/day
NEL (rat [16]; [38]): 150 mg/kg/day
NOAEL (rat [16]; [38]): ≥ 400 mg/kg/day
LEL (rat [16]; [39]): 150 mg/kg/day
LOAEL (rat [16]; [39]): 150 mg/kg/day
NEL (rat [16]; [39]): 25 mg/kg/day
NOAEL (rat [16]; [39]): 25 mg/kg/day
LOAEL (rat [17]; [40]): 750 mg/kg/day
NOAEL (rat [17]; [40]): 500 mg/kg/day
LEL (rat [17]; [41]): 100 mg/kg/day
NEL (rat [17]; [41]): < 100 mg/kg/day
LEL (rabbit [18]; [38]): 50 mg/kg/day
LOAEL (rabbit [18]; [38]): 150 mg/kg/day
NEL (rabbit [18]; [38]): 25 mg/kg/day
NOAEL (rabbit [18]; [38]): 50 mg/kg/day
LEL (rabbit [18]; [42]): 25 mg/kg/day
NEL (rabbit [18]; [42]): < 25 mg/kg/day
NOAEL (rabbit [18]; group: maternal, reproductive / reproductive performance / resorptions / resorptions + systemic / in life observation / body weight / body weight gain + …): 50 mg/kg/day
LOAEL (rabbit [18]; [43]): 150 mg/kg/day
LEL (rat [19]; [38]): 600 mg/kg/day
LOAEL (rat [19]; [38]): 600 mg/kg/day
NEL (rat [19]; [38]): 400 mg/kg/day
NOAEL (rat [19]; [38]): 400 mg/kg/day
LEL (rat [19]; [43]): 100 mg/kg/day
NEL (rat [19]; [43]): < 100 mg/kg/day
LOAEL (rat [19]; group: maternal, systemic / in life observation / body weight / body weight gain + systemic / in life observation / clinical signs / salivation): 400 mg/kg/day
NOAEL (rat [19]; group: maternal, systemic / in life observation / body weight / body weight gain + systemic / in life observation / clinical signs / salivation + …): 200 mg/kg/day
